Results from paper PMC3794980, “Identification of Conserved and HLA Promiscuous DENV3 T-Cell Epitopes” (PLoS Neglected Tropical Diseases, 2013).
Like-named read-outs stand apart in the source and are kept apart here. Where no end group is shown, it is not given here.

Key:
Assay in all cases: biochemical
Assay type in all cases: binding
DRB1*0802 = DRB1*0802 (Homo sapiens, UniProt P01903+P01911, A100R/A103L/A169T/F76Y/H45Y/I96F/K41T/L162R/M171V/P40S/Q125H/Q178H/Q39Y/Q99D/R218S/R42G/S66Y/V115G/W38E)
DRB1*0701 = DRB1*0701 (Homo sapiens, UniProt P01903+P01911, A100R/A102G/A103Q/D57E/D86V/E43K/F76Y/K127E/L162R/M171V/P40G/Q125H/Q99D/R33Q/R42Y/R54Q/S133A/S66F/T210M/V115G/Y107V/Y59L/Y89S)
DRB1*0901 = DRB1*0901 (Homo sapiens, UniProt P01903+P01911, A100R/A103E/D57H/D86V/F55Y/F60I/F76Y/I96F/K127E/L162R/M171V/P40D/Q125H/Q99R/R33Q/R42F/S133A/S66N/T210M/V115G/W38K/Y107V/Y59G/Y89S); conditions: competitive inhibition of radiolabeled standard peptide, read-out: Binding Affinity (nM) DRB1*0901
DRB1*0301 = DRB1*0301 (Homo sapiens, UniProt P01903+P01911, A100K/A102G/A103R/A169T/F55Y/I96L/K41T/L162R/M171V/P40S/Q125H/Q178H/Q39Y/R42S/S66N/T106N/T262R/W38E/Y61H)
DRB1*0405 = DRB1*0405 (Homo sapiens, UniProt P01903+P01911, A100R/A169T/D86S/F76Y/I96L/K127E/L162R/M171V/N62H/P40V/Q125Y/R42H/S133A/S149N/S66Y/V115G/V209L/W38E)
DRB1*1302 = DRB1*1302 (Homo sapiens, UniProt P01903+P01911, A100E/A169T/K41T/L162R/M171V/P40S/Q125H/Q178H/Q39Y/Q99D/R42S/S66N/T262R/V115G/W38E/Y61H); conditions: competitive inhibition of radiolabeled standard peptide, read-out: Binding Affinity (nM) DRB1*1302
DRB1*1101 = DRB1*1101 (Homo sapiens, UniProt P01903+P01911, A100R/A169T/A87E/I96F/K41T/L162R/M171V/P40S/Q125H/Q178H/Q39Y/Q99D/R42S/S66Y/T262R/V115G/W38E)
DRB4*0101 = DRB4*0101 (Homo sapiens, UniProt P01903+P13762, G164S)
DRB1*0101 = DRB1*0101 (Homo sapiens, UniProt P01903+P01911, A100R/D57E/F55L/F60I/F76Y/I96L/L162R/M171V/P40L/Q125E/R42F/V115G/Y59C)
DRB1*0401 = DRB1*0401 (Homo sapiens, UniProt P01903+P01911, A100K/A169T/F76Y/I96L/K127E/L162R/M171V/N62H/P40V/Q125Y/R42H/S133A/S149N/S66Y/V115G/V209L/W38E)
DRB3*0101 = DRB3*0101 (Homo sapiens, UniProt P01903+P79483)
DRB1*1501 = DRB1*1501 (Homo sapiens, UniProt P01903+P01911)
DRB1*0404 = DRB1*0404 (Homo sapiens, UniProt P01903+P01911, A100R/A169T/F76Y/I96L/K127E/L162R/M171V/N62H/P40V/Q125Y/R42H/S133A/S149N/S66Y/V209L/W38E)
DRB5*0101 = DRB5*0101 (Homo sapiens, UniProt P01903+Q30154)

DRB1*1302, sequence (P01903 26-254 limits assumed, other chains not shown): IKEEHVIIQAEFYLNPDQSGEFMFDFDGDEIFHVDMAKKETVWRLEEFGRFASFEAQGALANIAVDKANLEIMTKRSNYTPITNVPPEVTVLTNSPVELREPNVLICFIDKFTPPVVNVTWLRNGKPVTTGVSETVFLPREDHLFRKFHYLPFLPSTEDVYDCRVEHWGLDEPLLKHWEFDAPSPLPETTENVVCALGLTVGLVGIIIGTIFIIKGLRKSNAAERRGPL
DRB1*0301, sequence (P01903 26-254, other chains not shown): as the sequence (P01903 26-254 limits assumed, other chains not shown) above
DRB1*1101, sequence (P01903 26-254, other chains not shown): as the sequence (P01903 26-254 limits assumed, other chains not shown) above

Row | Molecule | IC50 (DRB1*0802) | IC50 (DRB1*0701) | IC50 (DRB1*0901; DRB1*0901) | IC50 (DRB1*0301) | IC50 (DRB1*0405) | IC50 (DRB1*1302; DRB1*1302) | IC50 (DRB1*1101) | IC50 (DRB4*0101) | IC50 (DRB1*0101) | IC50 (DRB1*0401) | IC50 (DRB3*0101) | IC50 (DRB1*1501) | IC50 (DRB1*0404) | IC50 (DRB1*0901; '-' distinct from ND) | IC50 (DRB1*1302; '-' distinct from ND) | IC50 (DRB5*0101)
1 | CSCC[C@H](NC(=O)[C@@H](NC(=O)[C@H](Cc1ccccc1)NC(=O)[C@H](CCCNC(=N)N)NC(=O)[C@H](CC(N)=O)NC(=O)[C@H](CC(C)C)NC(=O)[C@H](CC(C)C)NC(=O)[C@H](CC(C)C)NC(=O)[C@H](CCCNC(=N)N)NC(=O)[C@H](CO)NC(=O)[C@@H](NC(=O)[C@@H](N)CCSC)C(C)C)[C@@H](C)O)C(=O)N[C@H](C(=O)N[C@@H](Cc1c[nH]cn1)C(=O)N[C@@H](CCCNC(=N)N)C(=O)N[C@@H](CCCNC(=N)N)C(=O)O)[C@@H](C)O [NS5 233-248] | 159 nM | 97 nM | 569 nM | 327 nM | 699 nM | 34 nM | 0.016 µM | 617 nM | 108 nM | 57 nM | 2240 nM | 307 nM | 1.07 µM | – | – | –
2 | CC[C@H](C)[C@H](NC(=O)[C@H](Cc1c[nH]c2ccccc12)NC(=O)[C@H](Cc1ccc(O)cc1)NC(=O)CNC(=O)[C@H](CCSC)NC(=O)[C@H](CC(=O)O)NC(=O)[C@H](C)NC(=O)[C@H](Cc1c[nH]cn1)NC(=O)[C@@H](NC(=O)[C@H](C)N)C(C)C)C(=O)N[C@@H](CCC(=O)O)C(=O)N[C@@H](CO)C(=O)N[C@@H](CCC(N)=O)C(=O)N[C@@H](CCCCN)C(=O)N[C@@H](CC(N)=O)C(=O)O [NS1 193-207] | 12900 nM | 7970 nM | – | 2590 nM | 3240 nM | – | 13.9 µM | 180 nM | 1200 nM | 3540 nM | 24 nM | 6340 nM | 5.81 µM | 9890 nM | 33 nM | 10400 nM
3 | CC[C@H](C)[C@H](NC(=O)[C@H](CC(N)=O)NC(=O)CNC(=O)[C@@H](NC(=O)CNC(=O)[C@H](CC(N)=O)NC(=O)[C@@H](N)CO)[C@@H](C)O)C(=O)N[C@H](C(=O)N[C@@H](CO)C(=O)N[C@@H](CO)C(=O)N[C@H](C(=O)N[C@@H](CC(N)=O)C(=O)N[C@@H](CCSC)C(=O)N[C@H](C(=O)N[C@@H](CO)C(=O)N[C@@H](CCCNC(=N)N)C(=O)N[C@@H](CC(C)C)C(=O)O)C(C)C)C(C)C)C(C)C [NS5 221-237] | 5.8 nM | 21 nM | 45 nM | 15 nM | 25 nM | 65 nM | 0.031 µM | 60 nM | 4 nM | 1.1 nM | 6300 nM | 20 nM | 0.084 µM | – | – | –
4 | CC(C)C[C@H](NC(=O)[C@H](C)NC(=O)[C@H](CCC(=O)O)NC(=O)[C@H](Cc1ccccc1)NC(=O)[C@H](CCC(=O)O)NC(=O)[C@H](CC(C)C)NC(=O)[C@H](Cc1ccc(O)cc1)NC(=O)[C@H](CCCNC(=N)N)NC(=O)[C@H](C)NC(=O)CNC(=O)[C@H](CC(C)C)NC(=O)[C@@H](N)Cc1c[nH]c2ccccc12)C(=O)NCC(=O)N[C@@H](Cc1ccccc1)C(=O)N[C@@H](CC(C)C)C(=O)N[C@@H](CC(N)=O)C(=O)N[C@@H](CCC(=O)O)C(=O)O [NS5 477-493] | 2280 nM | 26 nM | 79 nM | 2420 nM | 54 nM | 9750 nM | 0.71 µM | 274 nM | 12 nM | 67 nM | 26 nM | 338 nM | 0.124 µM | – | – | –
5 | CC[C@H](C)[C@H](NC(=O)[C@H](CC(C)C)NC(=O)[C@H](CCCNC(=N)N)NC(=O)CNC(=O)[C@@H](N)CC(N)=O)C(=O)N[C@H](C(=O)N[C@@H](C)C(=O)N[C@@H](CC(N)=O)C(=O)N1CCC[C@H]1C(=O)N[C@H](C(=O)N[C@H](C(=O)N[C@H](C(=O)N[C@@H](CCCCN)C(=O)N[C@@H](CCCCN)C(=O)N[C@@H](CCC(=O)O)C(=O)O)[C@@H](C)O)C(C)C)C(C)C)[C@@H](C)O [Envelope 346-360] | 288 nM | 68 nM | – | 216 nM | 6740 nM | – | 10.6 µM | 3000 nM | 4.5 nM | 343 nM | 18300 nM | 332 nM | 15.3 µM | 333 nM | 15 nM | –
6 | EGKVVQYENLKYTVI [Envelope 126-140] | 37 nM | 2310 nM | – | 692 nM | 90 nM | – | 8.98 µM | 59 nM | 980 nM | 1380 nM | 2070 nM | 21 nM | 6.05 µM | 3860 nM | 1480 nM | 2470 nM
7 | CC(C)C[C@H](NC(=O)[C@H](C)NC(=O)[C@H](CC(C)C)NC(=O)[C@@H]1CCCN1)C(=O)N[C@@H](CCCCN)C(=O)N[C@@H](CCC(=O)O)C(=O)N[C@@H](Cc1ccccc1)C(=O)N[C@@H](CCCCN)C(=O)N[C@@H](CC(=O)O)C(=O)N[C@@H](Cc1ccccc1)C(=O)N[C@@H](C)C(=O)N[C@@H](C)C(=O)NCC(=O)N[C@@H](CCCNC(=N)N)C(=O)N[C@@H](CCCCN)C(=O)O [NS3 605-619] | 37 nM | 3450 nM | 9320 nM | 4440 nM | 5550 nM | 19600 nM | 8.89 µM | 1360 nM | 4350 nM | 4730 nM | 3380 nM | 28 nM | 2.22 µM | – | – | 20 nM
8 | C[C@@H](O)[C@H](NC(=O)[C@H](CO)NC(=O)[C@H](CO)NC(=O)[C@H](Cc1c[nH]cn1)NC(=O)[C@H](CCC(=O)O)NC(=O)[C@H](CCC(=O)O)NC(=O)[C@@H](N)CCCCN)C(=O)N[C@@H](Cc1c[nH]c2ccccc12)C(=O)N[C@@H](Cc1c[nH]cn1)C(=O)N[C@@H](Cc1ccc(O)cc1)C(=O)N[C@@H](CC(=O)O)C(=O)N[C@@H](CC(=O)O)C(=O)N[C@@H](CCC(=O)O)C(=O)N[C@@H](CC(N)=O)C(=O)N1CCC[C@H]1C(=O)N[C@@H](Cc1ccc(O)cc1)C(=O)N[C@@H](CCCCN)C(=O)O [NS5 284-300] | 1540 nM | 2490 nM | 8140 nM | 9.3 nM | 8690 nM | 2030 nM | 1.4 µM | 14100 nM | 2100 nM | 306 nM | 17 nM | 5900 nM | 18.2 µM | – | – | –
